# Data: US10576052B2, “Composition preventing bacterial inflammation in monogastric animals” (PERSTORP AB, priority 2015, dated 2020)
# Assays:
# [1] = system: GLP-2 positive cells in the small intestine (jejunum and ileum); experiment: Quantification of GLP-2 positive cells in villi and crypts of jejunum and ileum of broiler chickens fed supplemented feed; type: in vivo, Ross broiler chickens; conditions: 5.6 g/kg feed from day of hatch, sampled at age of ten days
# Description: […] one-day-old Ross broiler chickens were obtained from a local hatchery. The animals were divided at random in two equal groups: one experimental groups, and one control group. The groups were housed on wood shavings in separate containers of 0.96 m^2. Commercial feed and drinking water was provided ad libitum, From the day of hatch, the experimental group received feed supplemented with glyceryl monovalerate (MV; Perstorp, 5.6 g/kg feed), according to the suppliers recommendations (in-feed supplementation). The control group, received unsupplemented feed. At the age of ten days, the animals were killed by injecting an intravenous overdose of pentobarbital and sampling was performed. Samples (1 cm in length) of jejunum and ileumn were submerged in 4% phosphate buffered (wt/vol) formaldehyde within 15 minutes after euthanasia. […] For each animal, the area of 10 randomly chosen villi and 30 randomly chosen crypts was measured for jejunum and ileum using LAS V3.8 software (Leica Microsystems GmbH, Wetzlar, Germany). In total 80 areas per bird were analysed. For every defined area, the number of cells was counted at magnification ×400. Only cells with a detectable nucleus were counted. The average number of cells per area villus or crypt (cells/mm^2) was calculated for each bird. […]
# Salmonella = experiment: In vitro Salmonella growth inhibition; type: cell-based
# HilA expression = experiment: Invasive gene expression (HilA expression) in Salmonella; type: cell-based
smiles,measurement,setting,value
CCCCC(=O)OCC(O)CO (stereo not shown) [glyceryl monovalerate],"average number of GLP-2 positive cells in the villi of jejunum and ileum, experimental group vs control group","[1]; P≤0.001, FIG. 1",statistically higher
same,"average numbers of GLP2-positive cells in the crypts of jejunum and ileum, experimental group vs control group","[1]; P≤0.05, FIG. 2",statistically higher
same,inhibition of Salmonella growth,Salmonella,effective inhibitor
same,invasive gene expression (HilA expression) in Salmonella,HilA expression,down-regulated
